Laboratory results reported in patent US9045493B2, “Furo[3,2-b]- and thieno[3,2-b]pyridin derivatives” (Merck Patent GmbH, priority 2012, dated 2015).

Experiments:
[1] = molecular target: T1, TANK binding kinase (TBK1) (Homo sapiens, UniProt Q9UHD2); assay: TBK1 enzyme assay (384-well Flashplate kinase assay); assay type: biochemical; details: 10 μM ATP, 120 Min at 30° C.
T1 sequence (Q9UHD2 1-729): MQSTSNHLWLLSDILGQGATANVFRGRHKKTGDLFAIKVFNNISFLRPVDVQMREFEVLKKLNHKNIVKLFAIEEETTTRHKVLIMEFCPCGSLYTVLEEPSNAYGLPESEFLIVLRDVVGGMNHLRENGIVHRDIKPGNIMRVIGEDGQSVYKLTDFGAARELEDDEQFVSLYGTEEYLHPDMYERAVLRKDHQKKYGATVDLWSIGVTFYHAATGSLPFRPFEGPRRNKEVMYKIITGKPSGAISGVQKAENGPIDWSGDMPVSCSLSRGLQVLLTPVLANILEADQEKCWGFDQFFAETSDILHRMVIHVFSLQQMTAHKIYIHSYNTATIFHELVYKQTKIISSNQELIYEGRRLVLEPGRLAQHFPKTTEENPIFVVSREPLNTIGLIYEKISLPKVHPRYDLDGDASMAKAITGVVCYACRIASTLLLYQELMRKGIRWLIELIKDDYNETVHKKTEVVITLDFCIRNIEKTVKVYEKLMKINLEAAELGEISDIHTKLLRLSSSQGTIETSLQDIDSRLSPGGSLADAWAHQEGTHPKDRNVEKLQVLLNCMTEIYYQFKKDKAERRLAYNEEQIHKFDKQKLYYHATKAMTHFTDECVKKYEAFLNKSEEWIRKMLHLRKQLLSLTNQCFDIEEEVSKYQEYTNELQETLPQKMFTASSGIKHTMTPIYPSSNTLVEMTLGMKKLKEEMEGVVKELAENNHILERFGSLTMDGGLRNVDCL
Description: The kinase assay is performed as 384-well Flashplate assay (for e.g. Topcount measurement.
0.6 nM TANK binding kinase (TBK1), 800 nM biotinylated MELK-derived peptide (Biotin-Ah-Ah-[…]) and 10 μM ATP (spiked with 0.25 μCi ^33P-ATP/well) are incubated in a total volume of 50 μl (10 mM MOPS, 10 mM Mg-acetat, 0.1 mM EGTA, 1 mM DTT, 0.02% Brij35, 0.1% BSA, pH 7.5) with or without test compound for 120 Min at 30° C. The reaction is stopped with 25 μl 200 mM EDTA. After 30 Min at room temperature the liquid is removed and each well washed thrice with 100 μl 0.9% sodium chloride solution. Nonspecific reaction is determined in presence of 100 nM Staurosporine. Radioactivity is measured in a Topcount (PerkinElmer). Results (e.g. IC50-values) are calculated with program tools provided by the IT-department (e.g. AssayExplorer, Symyx).

[2] = molecular target: T2, IKKε (Homo sapiens, UniProt Q14164); assay: IKKε kinase assay (384-well Flashplate); assay type: biochemical; details: 10 μM ATP, 2 hours at 30° C.; read-out: IKKε enzyme assay IC50
T2 sequence (Q14164 1-716): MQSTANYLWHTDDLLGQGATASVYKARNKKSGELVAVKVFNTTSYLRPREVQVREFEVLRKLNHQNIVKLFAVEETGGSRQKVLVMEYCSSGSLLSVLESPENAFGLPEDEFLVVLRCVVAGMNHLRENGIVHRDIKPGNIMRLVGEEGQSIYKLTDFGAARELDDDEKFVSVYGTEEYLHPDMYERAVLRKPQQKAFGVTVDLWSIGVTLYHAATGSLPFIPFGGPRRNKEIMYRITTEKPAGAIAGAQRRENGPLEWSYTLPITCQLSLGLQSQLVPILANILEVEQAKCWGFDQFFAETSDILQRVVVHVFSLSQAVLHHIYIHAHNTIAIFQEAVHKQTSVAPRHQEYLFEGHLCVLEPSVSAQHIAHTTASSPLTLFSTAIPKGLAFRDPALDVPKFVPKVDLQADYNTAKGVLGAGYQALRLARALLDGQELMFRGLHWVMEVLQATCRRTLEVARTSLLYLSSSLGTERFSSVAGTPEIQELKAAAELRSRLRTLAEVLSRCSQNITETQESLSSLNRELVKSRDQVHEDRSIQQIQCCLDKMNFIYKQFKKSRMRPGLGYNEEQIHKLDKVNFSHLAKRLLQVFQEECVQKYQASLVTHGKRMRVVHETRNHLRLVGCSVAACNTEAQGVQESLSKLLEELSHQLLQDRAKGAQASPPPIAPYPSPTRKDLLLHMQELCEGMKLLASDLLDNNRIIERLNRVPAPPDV
Description: The kinase assay is performed either as 384-well Flashplate assay (for e.g. Topcount measurement).
1 nM IKKε, 800 nM biotinylated IκBα(19-42) peptide (Biotin-C6-C6-[…]) and 10 μM ATP (spiked with 0.3 μCi ^33P-ATP/well) are incubated in a total volume of 50 μl (10 mM MOPS, 10 mM Mg-acetat, 0.1 mM EGTA, 1 mM Dithiothreitol, 0.02% Brij35, 0.1% BSA, 0.1% BioStab, pH 7.5) with or without test compound for 2 hours at 30° C. The reaction is stopped with 25 μl 200 mM EDTA. After 30 Min at room temperature the liquid is removed and each well washed thrice with 100 μl 0.9% sodium chloride solution. […] Radioactivity is measured with Topcount (PerkinElmer). Results (e.g. IC50-values) are calculated with program tools provided by the IT-department (e.g. AssayExplorer, Symyx).

| SMILES | IC50 [1] [nM] | IC50 [2] [nM] |
| --- | --- | --- |
| N#Cc1cc(-c2ccnc3cc(-c4ccc(N5CCOCC5)cc4)oc23)ccc1OC1CCOCC1 [Compound A1, 5-[2-(4-Morpholin-4-yl-phenyl)-furo[3,2-b]pyridin-7-yl]-2-(tetrahydro-pyran-4-yloxy)-benzonitrile] | 3000 to 50000 | 3000 to 50000 |
| COc1cccc(-c2cc3nccc(-c4ccc(OC5CCOCC5)c(C#N)c4)c3o2)c1 [Compound A6, 5-[2-(3-methoxy-phenyl)-furo[3,2-b]pyridin-7-yl]-2-(tetrahydro-pyran-4-yloxy)-benzonitrile] | 300 to 3000 | 300 to 3000 |
| COc1ccc(-c2cc3nccc(-c4ccc(OC5CCOCC5)c(C#N)c4)c3o2)cc1 [Compound A7, 5-[2-(4-methoxy-phenyl)-furo[3,2-b]pyridin-7-yl]-2-(tetrahydro-pyran-4-yloxy)-benzonitrile] | 300 to 3000 | 300 to 3000 |
| N#Cc1cc(-c2ccnc3cc(-c4ccc5cn[nH]c5c4)oc23)ccc1OC1CCOCC1 [Compound A71] | 300 to 3000 | < 300 |
| N#Cc1cc(-c2ccnc3cc(-c4cccc(N5CCOCC5)c4)oc23)ccc1OC1CCOCC1 [Compound A2, 5-[2-(3-Morpholin-4-yl-phenyl)-furo[3,2-b]pyridin-7-yl]-2-(tetrahydro-pyran-4-yloxy)-benzonitrile] | < 300 | < 300 |
| COc1cc(-c2cc3nccc(-c4ccc(OC5CCOCC5)c(C#N)c4)c3o2)ccc1C(=O)NC1CCOCC1 [Compound A105] | < 300 | < 300 |
| CNCCNC(=O)c1ccc(-c2cc3nccc(-c4ccc(OC5CCOCC5)c(C#N)c4)c3o2)cc1 [Compound A15, 4-{7-[3-cyano-4-(tetrahydro-pyran-4-yloxy)-phenyl]-furo[3,2-b]pyridin-2-yl}-N-(2-methylamino-ethyl)-benzamide] | 300 to 3000 | < 300 |
| CCOC(=O)c1ccc(-c2cc3nccc(-c4ccc(OC5CCOCC5)c(C#N)c4)c3o2)cc1 [Compound A4, 4-{7-[3-cyano-4-(tetrahydro-pyran-4-yloxy)-phenyl]-furo[3,2-b]pyridin-2-yl}-benzoic acid ethyl ester] | 300 to 3000 | 300 to 3000 |
| CNC(=O)c1ccc(-c2cc3nccc(-c4ccc(OC5CCOCC5)c(C#N)c4)c3o2)cc1 [Compound A19, 4-{7-[3-cyano-4-(tetrahydro-pyran-4-yloxy)-phenyl]-furo[3,2-b]pyridin-2-yl}-N-methyl-benzamide] | 300 to 3000 | 300 to 3000 |
| COc1cc(-c2cc3nccc(-c4ccc(OC5CCOCC5)c(C#N)c4)c3o2)ccc1C(=O)N1CCNC(=O)CC1 [Compound A91] | < 300 | < 300 |
| COc1cc(-c2cc3nccc(-c4ccc(OC5CCOCC5)c(C#N)c4)c3o2)ccc1C(=O)NCC(N)=O [Compound A93] | < 300 | < 300 |
| COc1ccccc1-c1cc2nccc(-c3ccc(OC4CCOCC4)c(C#N)c3)c2o1 [Compound A5, 5-[2-(2-methoxy-phenyl)-furo[3,2-b]pyridin-7-yl]-2-(tetrahydro-pyran-4-yloxy)-benzonitrile] | < 300 | < 300 |

More lines, now with the values ahead:

| IC50 [1] [nM] | IC50 [2] [nM] | SMILES |
| --- | --- | --- |
| < 300 | < 300 | N#Cc1cc(-c2ccnc3cc(-c4cnn(C5CCN(CCCO)CC5)c4)oc23)ccc1OC1CCOCC1 [Compound A69] |
| < 300 | < 300 | N#Cc1cc(-c2ccnc3cc(-c4ccc(C(=O)N5CCNCC5)cc4F)oc23)ccc1OC1CCOCC1 [Compound A111] |
| < 300 | < 300 | COc1cc(C(=O)N[C@@H]2CCCNC2)ccc1-c1cc2nccc(-c3ccc(OC4CCOCC4)c(C#N)c3)c2o1 [Compound A120] |
| < 300 | < 300 | CCN(CCN(C)C)C(=O)c1ccc(-c2cc3nccc(-c4ccc(OC5CCOCC5)c(C#N)c4)c3o2)cc1OC [Compound A31, 4-{7-[3-cyano-4-(tetrahydro-pyran-4-yloxy)-phenyl]-furo[3,2-b]pyridin-2-yl}-N-(2-dimethylamino-ethyl)-N-ethyl-2-methoxy-benzamide] |
| < 300 | < 300 | COc1cc(-c2cc3nccc(-c4ccc(OC5CCOCC5)c(C#N)c4)c3o2)ccc1C(=O)NCCN(C)C [Compound A32, 4-{7-[3-cyano-4-(tetrahydro-pyran-4-yloxy)-phenyl]-furo[3,2-b]pyridin-2-yl}-N-(2-dimethylamino-ethyl)-2-methoxy-benzamide] |
| < 300 | < 300 | N#Cc1cc(-c2ccnc3cc(-c4ccc(C(=O)N5CCN(CCO)CC5)cc4)oc23)ccc1OC1CCOCC1 [Compound A84] |
| < 300 | < 300 | N#Cc1cc(-c2ccnc3cc(-c4cnn(CCO)c4)sc23)ccc1OC1CCOCC1 [Compound A108] |
| < 300 | < 300 | N#Cc1cc(-c2ccnc3cc(-c4cnn(C5CCNCC5)c4)oc23)ccc1OC1CCOCC1 [Compound A36, 4-(4-{7-[3-Cyano-4-(tetrahydro-pyran-4-yloxy)-phenyl]-furo[3,2-b]pyridin-2-yl}-pyrazol-1-yl)-piperidin] |
| < 300 | < 300 | N#Cc1cc(-c2ccnc3cc(-c4ccc(C(=O)N5CCNCC5)cc4)oc23)ccc1OC1CCOC1 (centres unmarked) [Compound A43] |
| < 300 | < 300 | CN(CCO)C(=O)c1ccc(-c2cc3nccc(-c4ccc(OC5CCOCC5)c(C#N)c4)c3o2)cc1 [Compound A25, 4-{7-[3-cyano-4-(tetrahydro-pyran-4-yloxy)-phenyl]-furo[3,2-b]pyridin-2-yl}-N-(2-hydroxy-ethyl)-N-methyl-benzamide] |
| < 300 | < 300 | COc1cc(-c2cc3nccc(-c4ccc(OC5CCOCC5)c(C#N)c4)c3o2)ccc1C(=O)N[C@H]1CCCNC1 [Compound A94] |
| < 300 | < 300 | CN(CCO)C(=O)c1ccc(-c2cc3nccc(-c4ccc(OC5CCOCC5)c(C#N)c4)c3o2)c(F)c1 [Compound A107] |
| < 300 | < 300 | N#Cc1cc(-c2ccnc3cc(-c4ccc(C(=O)N5CCNC(=O)CC5)cc4)oc23)ccc1OC1CCOCC1 [Compound A86] |
| < 300 | < 300 | COc1cc(-c2cc3nccc(-c4ccc(OC5CCOCC5)c(C#N)c4)c3o2)ccc1C(=O)N1CCOC(CCO)C1 (centres unmarked) [Compound A103] |
| < 300 | < 300 | COc1cc(-c2cc3nccc(-c4ccc(OC5CCOCC5)c(C#N)c4)c3o2)ccc1C(=O)NC1CCCN(C)C1 (centres unmarked) [Compound A88] |
| < 300 | < 300 | N#Cc1cc(-c2ccnc3cc(-c4ccc(C(=O)N5CCNC(=O)CC5)cc4F)oc23)ccc1OC1CCOCC1 [Compound A112] |
